Molecules are shown by their SMILES. Several values for one entry are separate records, joined by “and”; a condition that tells them apart may be missing. Equal entries are not always repeated.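 Growth conditions: 96-well plates. Treatment: test compound, 48 hours, 5 concentrations. Analysis: linear interpolation between bracketing concentrations; unreached endpoints set to highest concentration. Definition used: TGI = concentration required for complete inhibition of growth.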

Test systems include SNB-78 CNS; KM20L2 colon; DMS 114 small cell lung; M19-MEL melanoma; RXF-631 renal.
Test in all cases: NCI anticancer screen, dose series, 48 h

As to `CCOC(=O)CCC1(C(=O)OC)CCCC1=O` (stereo not drawn), the TGI in the assay with SNB-78 CNS, in the assay on KM20L2 colon, in the assay with DMS 114 small cell lung and in the assay on M19-MEL melanoma was greater than 100 µM in each case.

Turning to `O=c1[nH]c(=O)n(C2CC(O)C(CO)O2)cc1C#Cc1ccc(C(F)(F)F)cc1` (stereo not drawn), the TGI in the assay with RXF-631 renal, with KM20L2 colon and with DMS 114 small cell lung was greater than 100 µM each time.

Consider `O=C1CCC2(CCC(=O)NC2=O)C(=O)N1`, for which the TGI in the assay with KM20L2 colon, in the assay on DMS 114 small cell lung and in the assay with M19-MEL melanoma was greater than 100 µM throughout.

As for `CC1=NN(C(=O)CC(=O)Nc2cccc(Cl)c2)C(=O)C1N=Nc1ccc(S(N)(=O)=O)cc1` (stereo not drawn), the TGI with SNB-78 CNS, in the assay with KM20L2 colon, in the assay with DMS 114 small cell lung and with M19-MEL melanoma was greater than 100 µM each time.

As for `C/C(=N\N(C)C)C(CN(C)C)C(c1ccccc1)c1c(O)c2ccccc2oc1=O` (stereo not drawn), the TGI with SNB-78 CNS, in the assay on KM20L2 colon and with DMS 114 small cell lung was greater than 100 µM throughout.

Consider `CC(=O)O[C@]12CCCCCCC1C1(O)C(O)CCC[C@H]12` (stereo partly drawn), for which the TGI with SNB-78 CNS, in the assay on KM20L2 colon, in the assay with DMS 114 small cell lung and in the assay with M19-MEL melanoma was greater than 100 µM in each case.

For the compound `Brc1ccc(N2C[N+](c3ccc(Br)cc3)=NC(c3ccccc3)=N2)cc1`, the TGI in the assay with SNB-78 CNS is 70.6 µM and > 100 µM; in the assay with KM20L2 colon it was 33.8 µM and > 100 µM; in the assay on DMS 114 small cell lung, 34.7 µM and 97.8 µM; with M19-MEL melanoma it was 29.7 µM and > 100 µM.

With `NC1=NS(=O)(=O)N=C(N)C1=Cc1ccc([N+](=O)[O-])o1`, the TGI was 47.9 µM with SNB-78 CNS, 31.3 µM with KM20L2 colon, 31.9 µM with DMS 114 small cell lung and 30 µM with M19-MEL melanoma.

On to `c1ccc(C2=NN3CN(N2)c2ccccc2OCCCOc2ccccc23)cc1`, for which the TGI in the assay with SNB-78 CNS, with KM20L2 colon, in the assay with DMS 114 small cell lung and in the assay on M19-MEL melanoma was greater than 100 µM throughout.

Take `Cc1nc2c(n1Cc1ccc(Cl)cc1)C(=O)c1ccccc1C2=O`: the TGI with SNB-78 CNS, in the assay on KM20L2 colon and in the assay with M19-MEL melanoma was greater than 75 µM in each case.

Turning to `CC(C)(CN1CCCCC1)C(=O)CC(SCCS(=O)(=O)O)c1ccc(Br)cc1` (stereo not drawn), the TGI was determined as 77.7 µM with SNB-78 CNS, 3.53 µM with KM20L2 colon, 3.46 µM in the assay on DMS 114 small cell lung and 5.05 µM in the assay with M19-MEL melanoma.

`Cc1ccc(S(=O)(=O)C(C#N)c2nc3ccccc3nc2-n2cccn2)cc1` (stereo not drawn): the TGI with SNB-78 CNS, with DMS 114 small cell lung and in the assay with M19-MEL melanoma was greater than 100 µM each time.

Values taken from PubChem BioAssay (NCI).
